Reference: paper PMC7354229 (ACS infectious diseases, 2020)
Like-named read-outs stand apart in the source and are kept apart here.

Experiments:
Assay type in all cases: cell-based, Staphylococcus aureus
[1] = tested on: S. aureus JE2 transposon mutants; settings: peptide at 1.56 μM, propidium iodide
[2] = tested on: S. aureus; assay: Growth inhibition in 100% TSB
[3] = tested on: S. aureus JE2 transposon mutant SAUSA300_0647 (vraF); assay: MIC ratio WT/mutant
[4] = tested on: S. aureus JE2 transposon mutant SAUSA300_1037 (pheS); assay: MIC ratio WT/mutant
[5] = tested on: S. aureus JE2 transposon mutant SAUSA300_1465; assay: MIC ratio WT/mutant
[6] = tested on: S. aureus JE2 transposon mutant SAUSA300_1503
[7] = tested on: S. aureus JE2 transposon mutant SAUSA300_1962; assay: MIC ratio WT/mutant
[8] = tested on: S. aureus JE2 transposon mutant SAUSA300_0186 (argC)
[9] = tested on: S. aureus JE2 transposon mutant SAUSA300_0646 (graS); assay: MIC ratio WT/mutant
[10] = tested on: S. aureus JE2 transposon mutant SAUSA300_0829 (lipA); assay: MIC ratio WT/mutant
[11] = tested on: S. aureus JE2 transposon mutant SAUSA300_0988 (trkA); assay: MIC ratio WT/mutant
[12] = tested on: S. aureus JE2 transposon mutant SAUSA300_1036
[13] = tested on: S. aureus JE2 transposon mutant SAUSA300_1255 (mprF); assay: MIC ratio WT/mutant
[14] = tested on: S. aureus JE2 transposon mutant SAUSA300_1336
[15] = tested on: S. aureus JE2 transposon mutant SAUSA300_1867; assay: MIC ratio WT/mutant
[16] = tested on: S. aureus JE2 transposon mutant SAUSA300_1967
[17] = tested on: S. aureus JE2 transposon mutant SAUSA300_1898

| Structure (SMILES) | Membrane permeability of mutant relative to JE2 ([1]; mutant SAUSA300_0646) | Membrane permeability of mutant relative to JE2 ([1]; mutants SAUSA300_0186, 0829, 1089, 1097, 1220, 1228, 1515, 1865, 1867, 1962 and 1967) | Membrane permeability of mutant relative to JE2 ([1]; mutants SAUSA300_0645, 0647 and 1503) | Membrane permeability of mutant relative to JE2 ([1]; mutants SAUSA300_1036, 1037 and 1255) | Inhibition of S. aureus growth [2] | Fold decrease of MIC (MIC ratio WT / mutant) [3] | Fold decrease of MIC (MIC ratio WT / mutant) [4] | Fold decrease of MIC (MIC ratio WT / mutant) [5] | Fold decrease of MIC (MIC ratio WT / mutant) [6] | Fold decrease of MIC (MIC ratio WT / mutant) [7] | Fold decrease of MIC (MIC ratio WT / mutant) [8] | Fold decrease of MIC (MIC ratio WT / mutant) [9] | Fold decrease of MIC (MIC ratio WT / mutant) [10] | Fold decrease of MIC (MIC ratio WT / mutant) [11] | Fold decrease of MIC (MIC ratio WT / mutant) [12] | Fold decrease of MIC (MIC ratio WT / mutant) [13] | Fold decrease of MIC (MIC ratio WT / mutant) [14] | Fold decrease of MIC (MIC ratio WT / mutant) [15] | Fold decrease of MIC (MIC ratio WT / mutant) [16] | Fold decrease of MIC (MIC ratio WT / mutant) [17] |
| --- | --- | --- | --- | --- | --- | --- | --- | --- | --- | --- | --- | --- | --- | --- | --- | --- | --- | --- | --- | --- |
| CC[C@H](C)[C@H](NC(=O)[C@H](CCCCN)NC(=O)[C@H](CCC(=O)O)NC(=O)[C@H](CCCCN)NC(=O)[C@H](CO)NC(=O)[C@H](CCCCN)NC(=O)[C@H](CCCNC(=N)N)NC(=O)[C@H](Cc1ccccc1)NC(=O)[C@H](Cc1ccccc1)NC(=O)[C@H](CC(=O)O)NC(=O)CNC(=O)[C@H](CC(C)C)NC(=O)[C@@H](N)CC(C)C)C(=O)NCC(=O)N[C@@H](CCCCN)C(=O)N[C@@H](CCC(=O)O)C(=O)N[C@@H](Cc1ccccc1)C(=O)N[C@@H](CCCCN)C(=O)N[C@@H](CCCNC(=N)N)C(=O)N[C@H](C(=O)N[C@H](C(=O)N[C@@H](CCC(N)=O)C(=O)N[C@@H](CCCNC(=N)N)C(=O)N[C@H](C(=O)N[C@@H](CCCCN)C(=O)N[C@@H](CC(=O)O)C(=O)N[C@@H](Cc1ccccc1)C(=O)N[C@@H](CC(C)C)C(=O)N[C@@H](CCCNC(=N)N)C(=O)N[C@@H](CC(N)=O)C(=O)N[C@@H](CC(C)C)C(=O)N[C@H](C(=O)N1CCC[C@H]1C(=O)N[C@@H](CCCNC(=N)N)C(=O)N[C@H](C(=O)N[C@@H](CCC(=O)O)C(=O)N[C@@H](CO)C(=O)O)[C@@H](C)O)C(C)C)[C@@H](C)CC)C(C)C)[C@@H](C)CC [LL-37] | less permeable | essentially no differences | slightly more permeable | clearly more permeable than JE2 | did not inhibit |  |  |  |  |  |  |  |  |  |  |  |  |  |  |  |
| CC(=O)NC[C@H]1CN(c2ccc(N3CCOCC3)c(F)c2)C(=O)O1 [Linez, linezolid] |  |  |  |  |  | 6 fold | 2 fold | 6 fold | 2 fold | 2–4 fold |  |  |  |  |  |  |  |  |  |  |
| CN(C)c1cc(NC(=O)CNC(C)(C)C)c(O)c2c1C[C@H]1C[C@H]3[C@H](N(C)C)C(O)=C(C(N)=O)C(=O)[C@@]3(O)C(O)=C1C2=O [Tige, tigecycline] |  |  |  |  |  | 2 fold | 2–4 fold | 6 fold | 2 fold | 4 fold | 2 fold | 2 fold | 2 fold | 2 fold | 2 fold | 2 fold | 2 fold | 2 fold | 2 fold | 2 fold |
| NC[C@H]1O[C@H](O[C@H]2[C@H](O)[C@@H](O[C@H]3O[C@H](CO)[C@@H](O)[C@H](N)[C@H]3O)[C@H](N)C[C@@H]2N)[C@H](N)C[C@@H]1O [Tobra, tobramycin] |  |  |  |  |  | 2 fold | 4 fold | 4 fold |  | 2 fold |  |  |  |  |  | 4 fold |  |  |  |  |
| CN[C@H](CC(C)C)C(=O)N[C@H]1C(=O)N[C@@H](CC(N)=O)C(=O)N[C@H]2C(=O)N[C@H]3C(=O)N[C@H](C(=O)N[C@H](C(=O)O)c4cc(O)cc(O)c4-c4cc3ccc4O)[C@H](O)c3ccc(c(Cl)c3)Oc3cc2cc(c3O[C@@H]2O[C@H](CO)[C@@H](O)[C@H](O)[C@H]2O[C@H]2C[C@](C)(N)[C@H](O)[C@H](C)O2)Oc2ccc(cc2Cl)[C@H]1O [Van, vancomycin] |  |  |  |  |  | 2–4 fold | 4 fold | 4 fold |  | 2 fold |  | 2–4 fold |  |  |  | 2 fold |  | 2 fold |  |  |
